pEC50: −log10 of the molar value.
What was measured:
Assay type in all cases: cell-based, human
[1] = tested on: sporadic PD patient fibroblasts; experiment: Mitochondrial membrane potential (MMP, TMRM) in sporadic PD patient fibroblasts; settings: Homo sapiens, Fibroblast, 24 h, 3 sporadic PD patient fibroblasts; for pEC50: 8-point range 0.06 nM-300 nM; for Emax: max response with highest dose of compound (300 nM), read-out: MMP % of vehicle, top %; for activity at 60 pM: max response with lowest dose of compound (0.06 nM), read-out: MMP % of vehicle, bottom %
Protocol: (§1) Primary fibroblast cells were cultured continuously in Glucose based medium (high glucose (4500 mg/L) Dulbecco's Modified Eagle's medium (DMEM; Sigma-Aldrich) supplemented with 10% fetal bovine serum (Sigma-Aldrich), 100 IU/mL penicillin, 100 μg/mL streptomycin (Lonza), 1 mM sodium pyruvate (Sigma-Aldrich) and 50 μg/mL uridine (Sigma-Aldrich)). Unless otherwise stated, 24 hours prior to analysis, the Glucose based medium was exchanged for Galactose based medium (glucose-free DMEM (Gibco) with the same supplementation and in addition, 5 mM galactose (Sigma-Aldrich)). All cells were assessed between passage 6-10.
Fibroblasts were cultured and plated into a greiner black 384 μClear® plate at a concentration of 1000 cells per well in 50 μl of media volume. The plates are left overnight in an incubator to allow the fibroblasts to adhere to the plate surface. The following morning the Glucose based medium is replaced with 25 μl of Galactose based medium. The plates were then dosed with the compounds using an ECHO® 550 liquid handling system. The wells were dosed to provide an 8-point concentration range of 0.06 nM-300 nM of compound. After dosing the wells are topped up with a further 25 μl of Galactose based medium and then left in an incubator for 24 hours. After 24 hours, the medium is removed from the wells and replaced with 25 μl phenol free Minimal essential medium supplemented with 10% FBS, 1% Penicillin-streptomycin, 1% sodium pyruvate, 0.1% uridine, 1% non-essential amino acids and 1% MEM vitamins with 80 nM TMRM (Sigma) and 10 μM Hoechst Stain (Sigma). The plate is returned to the incubator for another hour after which the stain medium is removed and replaced with 25 μl Phenol free MEM. The plate is then imaged using an IN Cell high content microscope (GE Healthcare) with fields of view per well in 2 channels, Cy3 excitation 542 nm, emission 604-64 nm; and the DAPI excitation 350 nm, emission 450-55 nm at 37° C. with CO2. After imaging the plate is disposed of and the images are Data mined using the INCell developer Toolkit (GE Healthcare).
After the assays had been repeated in triplicate per line and compound the data was then inputted into Graph pad Prism 7 software suite where a dose response curve is generated using the default “[Agonist] vs response(three parameters)” equation. […]

[2] = tested on: sporadic PD patient fibroblasts; experiment: Cellular ATP levels in sporadic PD patient fibroblasts, full ATP assay; settings: Homo sapiens, Fibroblast, 24 h, 3 sporadic PD patient fibroblasts; for Emax at 0.3 µM: max response with highest dose of compound (300 nM), read-out: ATP % of vehicle, top %
Protocol: as §1
The ATP protocol is generally as described in Mortiboys et al 2008. Briefly, fibroblasts were cultured as and plated into white 384 well plates at a concentration of 5000 cells per well in 50 μl of media volume. The plates are left overnight in an incubator to allow the fibroblasts to adhere to the plate surface. The following morning the Glucose based medium is replaced with 25 μl of Galactose based medium. The plates were then spiked with the compounds using a ECHO 550 liquid handling system. The wells were dosed to provide an 8-point concentration range of 0.06 nM-300 nM of compound. After dosing the wells are topped up with a further 25 μl of Galactose based medium and then left in an incubator for 24 hours. Following this incubation, the medium is removed from the plate and the wells are washed twice with sterile PBS. The wells are filled with 25 μl of Sterile PBS followed by 12.5 μl of Lysis solution from the ATPlite™ Luminescence ATP detection assay system (Perkin Elmer), including 16 cell free wells to use as blank controls. The plate is then placed on a rotary shaker for 5 mins at 700 rpm. Following the shaking 12.5 μl of ATP substrate solution (Perkin Elmer) is added to each well and a further 5 min of shaking. The plate is then placed in darkness for 10 minutes prior to reading. Using a PHERAStar® plate reader, luminescence intensity is recorded. Following the ATP assay the plates are immediately assayed for DNA content in a CyQUANT® assay.
(§2) Immediately following The ATP assay DNA content is assessed with the CyQUANT® NF Cell Proliferation Assay Kit (ThermoFisher). CyQUANT® buffer is prepared immediately before the assay and is comprised of 1 μl CyQUANT® dye per ml×1 HBSS solution. 12.5 μl of CyQUANT® buffer is added to each well. Plate left in incubator for 1 hour then read on a PHERAStar© Plate reader with excitation at 497 nm and emission at 520 nm.
ATP Quantification for each well is determined using the following formula: […]
After the assays had been repeated in triplicate per line and compound the data was then inputted into Graph pad Prism 7 software suite where a dose response curve is generated using the default “[Agonist] vs response(three parameters)” equation.
From this EC50 values, lowest response and maximal response were taken and used to calculate the Geometric mean between the 5 different lines assessed.

[3] = tested on: sporadic PD patient fibroblasts; experiment: Cellular ATP levels in sporadic PD patient fibroblasts, Preliminary ATP assay; settings: for activity at 0.1 µM / activity at 1 µM: Homo sapiens, Fibroblast; for activity at 0.1 µM: read-out: Average ATP Response 100 nM; for activity at 1 µM: read-out: Average ATP Response 1 μM
Protocol: In some cases, a preliminary ATP protocol was used in which EC50 was not determined. The preliminary ATP protocol is generally as described in Mortiboys et al 2008. Briefly, fibroblasts were cultured and plated into white, clear-bottom 384 well plates at a concentration of 4000 cells per well in 50 μl of media volume. The plates are left overnight in an incubator to allow the fibroblasts to adhere to the plate surface. The following morning the Glucose based medium is replaced with 25 μl of Galactose based medium. The cells were then dosed with 100 nM and 1 μM concentrations of the compounds using a ECHO 550 liquid handling system. After dosing the wells are topped up with a further 25 μl of Galactose based medium and then left in an incubator for 24 hours. Following this incubation, the medium is removed from the plate and the wells are washed twice with sterile PBS. The wells are filled with 20 μl of Sterile PBS followed by 10 μl of Lysis solution from the ATPlite™ Luminescence ATP detection assay system (Perkin Elmer), including 14 cell free wells to use as blank controls. The plate is then placed on a rotary shaker for 10 mins at 700 rpm. Following the shaking 10 μl of ATP substrate solution (Perkin Elmer) is added to each well and a further 5 min of shaking. The plate is then incubated in the dark for 10 minutes prior to reading. Using a FLUOstar® Omega plate reader, luminescence intensity is recorded. Following the ATP assay the plates are immediately assayed for DNA content in a CyQUANT® assay.
as §2, with “of 2” for “of 1”, “solution. 10” for “solution. 12.5”, “well. Cell plates were then incubated” for “well. Plate left in incubator”, “hour before being” for “hour then”, “a FLUOStar®” for “a PHERAStar©”
The ATP Quantification for each well is determined as set out above.

[4] = 100 nM, 24 h, % of vehicle treated sPD fibroblasts, 3 sporadic PD patients
[5] = 1 μM, 24 h, % of vehicle treated sPD fibroblasts, 3 sporadic PD patients

Compound: C[C@H](CCCC(=O)O)[C@H]1CC[C@H]2[C@@H]3[C@@H](O)C[C@@H]4CN(C(=O)CO)CC[C@]4(C)[C@H]3CC[C@]12C [Compound 40b, N-Glycolyl-3-aza-7β-hydroxy-25-homo-5β-cholan-25-oic acid]
- pEC50 [1]: 7.58
- Emax [1]: 131%
- activity at 60 pM [1]: 95.3%
- pEC50 ([2]; 8-point range 0.06 nM-300 nM): 7.71
- Emax at 0.3 µM [2]: 130%
- activity at 60 pM ([2]; max response with lowest dose of compound (0.06 nM), read-out: ATP % of vehicle, bottom %): 101%

Compound: CC(C)C[C@H](N)C(=O)N1CC[C@@]2(C)[C@H](C[C@H](O)[C@@H]3[C@@H]2CC[C@]2(C)[C@@H]([C@H](C)CCCC(=O)O)CC[C@@H]32)C1 [Compound 43b, N-[(2S)-2-Amino-4-methylpentanoyl]-3-aza-7β-hydroxy-25-homo-5β-cholan-25-oic acid hydrotrifluoroacetate]
- pEC50 [1]: 8.96
- Emax [1]: 103%
- activity at 60 pM [1]: 86.9%
- Emax at 0.3 µM [2]: 80.6%

Compound: C[C@H](CCCC(=O)O)[C@H]1CC[C@H]2[C@@H]3[C@@H](O)C[C@@H]4CN(C(=O)[C@@H](N)Cc5c[nH]c6ccccc56)CC[C@]4(C)[C@H]3CC[C@]12C [Compound 44b, N-[(2S)-2-Amino-3-(1H-indol-3-yl)propanoyl]-3-aza-7β-hydroxy-25-homo-5β-cholan-25-oic acid hydrotrifluoroacetate]
- pEC50 [1]: 9.96
- Emax [1]: 98.8%
- activity at 60 pM [1]: 77.8%
- Emax at 0.3 µM [2]: 98.4%

Compound: C[C@H](CCCC(=O)NC1CCOC1)[C@H]1CC[C@H]2[C@@H]3[C@@H](O)C[C@@H]4CN(C(=O)OCc5ccccc5)CC[C@]4(C)[C@H]3CC[C@]12C (stereo partly drawn) [Compound 80b, N-{(benzyloxycarbonyl)-3-aza-7β-hydroxy-25-homo-5β-cholan-25-oyl}-3-aminotetrahydrofuran]
- activity at 0.1 µM [3, 4]: 122%
- activity at 1 µM [3, 5]: 120%

Compound: CC(C)[C@H](NC(=O)CC[C@@H](C)[C@H]1CC[C@H]2[C@@H]3[C@@H](O)C[C@@H]4CNCC[C@]4(C)[C@H]3CC[C@]12C)C(=O)O [Compound 65a, N-(3-Aza-7β-hydroxy-5β-cholan-24-oyl)-(S)-2-amino-3-methylbutanoic acid]
- activity at 0.1 µM [3, 4]: 111%
- activity at 1 µM [3, 5]: 108%

Compound: C[C@H](CCCC(=O)NCCS(=O)(=O)O)[C@H]1CC[C@H]2[C@@H]3[C@@H](O)C[C@@H]4CNCC[C@]4(C)[C@H]3CC[C@]12C [Compound 72b, N-(3-Aza-7β-hydroxy-25-homo-5β-cholan-25-amide)-ethylsulfonic acid]
- activity at 0.1 µM [3, 4]: 102%
- activity at 1 µM [3, 5]: 112%

Compound: S-(3-Aza-7β-hydroxy-5β-cholan-24-oyl)-phenylmethanethiol [Compound 64a]
- ATP production relative to control levels ([3]; 100 nM): returning ATP production to control levels
- Average ATP Response 100 nM [3, 4]: 118.2%
- Average ATP Response 1 μM [3, 5]: 111.4%

Compound: C[C@H](CCC(=O)Nc1ccc(F)cc1)[C@H]1CC[C@H]2[C@@H]3[C@@H](O)C[C@@H]4CN(C)CC[C@]4(C)[C@H]3CC[C@]12C [Compound 55a, N-(3-Methyl-aza-7β-hydroxy-5β-cholan-24-oyl)-1-amino-4-fluorobenzene]
- activity at 0.1 µM [3, 4]: 110%
- activity at 1 µM [3, 5]: 109%

Compound: CSCC[C@H](NC(=O)CC[C@@H](C)[C@H]1CC[C@H]2[C@@H]3[C@@H](O)C[C@@H]4CNCC[C@]4(C)[C@H]3CC[C@]12C)C(=O)O [Compound 61a, N-(3-Aza-7β-hydroxy-5β-cholan-24-oyl)-(S)-2-amino-4-(methylthio)butanoic acid]
- activity at 0.1 µM [3, 4]: 105%
- activity at 1 µM [3, 5]: 108%

Compound: C[C@H](CCC(=O)N1CCC(=O)CC1)[C@H]1CC[C@H]2[C@@H]3[C@@H](O)C[C@@H]4CN(C(=O)OCc5ccccc5)CC[C@]4(C)[C@H]3CC[C@]12C [Compound 79a, N-{(benzyloxycarbonyl)-3-aza-7β-hydroxy-5β-cholan-24-oyl}-4-piperidone]
- activity at 0.1 µM [3, 4]: 116%
- activity at 1 µM [3, 5]: 122%

Compound: C[C@H](CCCC(=O)N[C@@H](CC(=O)O)C(=O)O)[C@H]1CC[C@H]2[C@@H]3[C@@H](O)C[C@@H]4CNCC[C@]4(C)[C@H]3CC[C@]12C [Compound 70b, N-(3-Aza-7β-hydroxy-25-homo-5β-cholan-25-oyl)-(S)-2-aminobutanedioic acid]
- activity at 0.1 µM [3, 4]: 106%
- activity at 1 µM [3, 5]: 107%

Compound: C[C@H](CCC(=O)N1CC2(COC2)C1)[C@H]1CC[C@H]2[C@@H]3[C@@H](O)C[C@@H]4CN(C(=O)OCc5ccccc5)CC[C@]4(C)[C@H]3CC[C@]12C [Compound 78a, N-{(benzyloxycarbonyl)-3-aza-7β-hydroxy-5β-cholan-24-oyl}-2-oxa-6-azospiro{3,3}heptane]
- activity at 0.1 µM [3, 4]: 121%
- activity at 1 µM [3, 5]: 120%
